Measurements from patent publication US20070203091A1, “Methods and therapeutic compositions for improving liver, blood flow and skeletal muscle functions in advanced diseases and aging” (priority 2006, published 2007).
Entries after “also recorded” stand apart in the source; their conditions may differ. Where two headings read alike, the source gives them in different places.

Key:
[1] = ATP pharmacokinetics: total blood (red blood cell) ATP level, Phase I study, 8 hour intravenous infusion; type: in vivo, human
Procedure: The solution was administered by continuous intravenous infusions using an Ivac or similar infusion device through venous access in a peripheral vein. If venous access was a problem, either a Hickman catheter or its equivalent, or an Infusaport or its equivalent was inserted to provide vascular access.
The 50 μg/kg/min dose could be reduced to 25 μg/kg/min if adverse effects occurred. […] Succeeding infusions in that patient were at the infusion dose tolerated at the end of the previous treatment. If adverse events occurred in patients being infused at 25 μg/kg/min, the infusions were terminated and the patient received no additional infusions.

[2] = Tumor burden endpoints (PSA), Phase I study; type: in vivo, human
[3] = cited from earlier work
[4] = cited from earlier work; remark: listed apart in the source
[5] = Week 1 (infusion 1), 4 hours into infusion
[6] = Week 1 (infusion 1), 8 hours (before the end)
[7] = Week 1 (infusion 1), 8.25 hours
[8] = Week 1 (infusion 1), Time 0 (pre-infusion)
[9] = Week 3 (Infusion 3), 4 hours into infusion
[10] = Week 3 (Infusion 3), 8 hours before the end
[11] = Week 3 (Infusion 3), Time 0 (pre-infusion)
[12] = Week 8 (infusion 8), 4 hours into infusion
[13] = Week 8 (infusion 8), 8 hours (before the end)
[14] = Week 8 (infusion 8), Time 0 (pre-infusion)
[15] = ATP infusion rate 500-1000 μg/kg/min
[16] = ATP infusion rate ≦100 μg/kg/min
[17] = low levels of ATP administered directly into the duodenum

Question: For Nc1ncnc2c1ncn2[C@@H]1O[C@H](COP(=O)(O)OP(=O)(O)OP(=O)(O)O)[C@@H](O)[C@H]1O [ATP, adenosine 5′-triphosphate], which “total blood (red blood cell) ATP levels” value ([1]; ATP continuously for eight hours) is on record?
Answer: increases

Question: What about the “ATP Level Mean” value [1, 5] of the same molecule?
Answer: 0.808 mM

Question: And the “ATP Level Median” value [1, 5]?
Answer: 0.745 mM

Question: What about the “ATP Level Mean” value [1, 6] of the same molecule?
Answer: 0.896 mM

Question: And the “ATP Level Median” value [1, 6]?
Answer: 0.770 mM

Question: What about the “ATP Level Mean” value [1, 7] of the same molecule?
Answer: 0.860 mM

Question: And the “ATP Level Median” value [1, 7]?
Answer: 0.860 mM

Question: And the “ATP Level Mean” value ([1]; Week 1 (infusion 1), 9 hours)?
Answer: 0.912 mM

Question: What about the “ATP Level Median” value ([1]; Week 1 (infusion 1), 9 hours) of the same molecule?
Answer: 0.765 mM

Question: What about the “ATP Level Mean” value ([1]; Week 1 (infusion 1), 10 hours) of the same molecule?
Answer: 0.826 mM

Question: And the “ATP Level Median” value ([1]; Week 1 (infusion 1), 10 hours)?
Answer: 0.735 mM

Question: What about the “ATP Level Mean” value ([1]; Week 1 (infusion 1), 11 hours) of the same molecule?
Answer: 0.828 mM

Question: And the “ATP Level Median” value ([1]; Week 1 (infusion 1), 11 hours)?
Answer: 0.680 mM

Question: What about the “ATP Level Mean” value ([1]; Week 1 (infusion 1), 12 hours) of the same molecule?
Answer: 0.845 mM

Question: And the “ATP Level Median” value ([1]; Week 1 (infusion 1), 12 hours)?
Answer: 0.690 mM

Question: And the “ATP Level Mean” value ([1]; Week 1 (infusion 1), 14 hours)?
Answer: 0.857 mM

Question: And the “ATP Level Median” value ([1]; Week 1 (infusion 1), 14 hours)?
Answer: 0.730 mM

Question: What about the “ATP Level Mean” value ([1]; Week 1 (infusion 1), 16 hours) of the same molecule?
Answer: 0.905 mM

Question: What about the “ATP Level Median” value ([1]; Week 1 (infusion 1), 16 hours) of the same molecule?
Answer: 0.755 mM

Question: What about the “ATP Level Mean” value ([1]; Week 1 (infusion 1), 20 hours) of the same molecule?
Answer: 0.772 mM

Question: What about the “ATP Level Median” value ([1]; Week 1 (infusion 1), 20 hours) of the same molecule?
Answer: 0.670 mM

Question: What about the “ATP Level Mean” value ([1]; Week 1 (infusion 1), 24 hours) of the same molecule?
Answer: 0.715 mM

Question: And the “ATP Level Median” value ([1]; Week 1 (infusion 1), 24 hours)?
Answer: 0.620 mM

Question: And the “ATP Level Mean” value [1, 8]?
Answer: 0.615 mM

Question: And the “ATP Level Median” value [1, 8]?
Answer: 0.550 mM

Question: What about the “ATP Level Mean” value ([1]; Week 1 (infusion 1), […]) of the same molecule?
Answer: 0.895 mM

Question: What about the “ATP Level Median” value ([1]; Week 1 (infusion 1), […]) of the same molecule?
Answer: 0.810 mM

Question: What about the “ATP Level Mean” value [1, 9] of the same molecule?
Answer: 0.843 mM

Question: What about the “ATP Level Median” value [1, 9] of the same molecule?
Answer: 0.540 mM

Question: And the “ATP Level Mean” value [1, 10]?
Answer: 0.955 mM

Question: And the “ATP Level Median” value [1, 10]?
Answer: 0.770 mM

Question: And the “ATP Level Mean” value ([1]; Week 3 (Infusion 3), 9 hours)?
Answer: 0.908 mM

Question: And the “ATP Level Median” value ([1]; Week 3 (Infusion 3), 9 hours)?
Answer: 0.950 mM

Question: And the “ATP Level Mean” value ([1]; Week 3 (Infusion 3), 10 hours)?
Answer: 0.906 mM

Question: And the “ATP Level Median” value ([1]; Week 3 (Infusion 3), 10 hours)?
Answer: 1.000 mM

Question: What about the “ATP Level Mean” value ([1]; Week 3 (Infusion 3), 11 hours) of the same molecule?
Answer: 0.885 mM

Question: What about the “ATP Level Median” value ([1]; Week 3 (Infusion 3), 11 hours) of the same molecule?
Answer: 0.670 mM

Question: What about the “ATP Level Mean” value ([1]; Week 3 (Infusion 3), 12 hours) of the same molecule?
Answer: 0.903 mM

Question: What about the “ATP Level Median” value ([1]; Week 3 (Infusion 3), 12 hours) of the same molecule?
Answer: 0.820 mM

Question: What about the “ATP Level Mean” value ([1]; Week 3 (Infusion 3), 14 hours) of the same molecule?
Answer: 0.853 mM

Question: And the “ATP Level Median” value ([1]; Week 3 (Infusion 3), 14 hours)?
Answer: 0.600 mM

Question: What about the “ATP Level Mean” value ([1]; Week 3 (Infusion 3), 16 hours) of the same molecule?
Answer: 0.859 mM

Question: And the “ATP Level Median” value ([1]; Week 3 (Infusion 3), 16 hours)?
Answer: 0.740 mM

Question: What about the “ATP Level Mean” value ([1]; Week 3 (Infusion 3), 20 hours) of the same molecule?
Answer: 0.851 mM

Question: What about the “ATP Level Median” value ([1]; Week 3 (Infusion 3), 20 hours) of the same molecule?
Answer: 0.610 mM

Question: What about the “ATP Level Mean” value ([1]; Week 3 (Infusion 3), 24 hours) of the same molecule?
Answer: 0.687 mM

Question: And the “ATP Level Median” value ([1]; Week 3 (Infusion 3), 24 hours)?
Answer: 0.580 mM

Question: What about the “ATP Level Mean” value [1, 11] of the same molecule?
Answer: 0.610 mM

Question: What about the “ATP Level Median” value [1, 11] of the same molecule?
Answer: 0.560 mM

Question: What about the “ATP Level Mean” value ([1]; Week 3 (Infusion 3), […]) of the same molecule?
Answer: 0.989 mM

Question: And the “ATP Level Median” value ([1]; Week 3 (Infusion 3), […])?
Answer: 0.960 mM

Question: And the “ATP Level Mean” value [1, 12]?
Answer: 0.702 mM

Question: And the “ATP Level Median” value [1, 12]?
Answer: 0.770 mM

Question: What about the “ATP Level Mean” value [1, 13] of the same molecule?
Answer: 0.826 mM

Question: What about the “ATP Level Median” value [1, 13] of the same molecule?
Answer: 0.890 mM

Question: What about the “ATP Level Mean” value ([1]; Week 8 (infusion 8), 9 hours) of the same molecule?
Answer: 1.030 mM

Question: And the “ATP Level Median” value ([1]; Week 8 (infusion 8), 9 hours)?
Answer: 1.155 mM

Question: What about the “ATP Level Mean” value ([1]; Week 8 (infusion 8), 10 hours) of the same molecule?
Answer: 0.963 mM

Question: And the “ATP Level Median” value ([1]; Week 8 (infusion 8), 10 hours)?
Answer: 1.080 mM

Question: What about the “ATP Level Mean” value ([1]; Week 8 (infusion 8), 11 hours) of the same molecule?
Answer: 0.973 mM

Question: What about the “ATP Level Median” value ([1]; Week 8 (infusion 8), 11 hours) of the same molecule?
Answer: 1.010 mM

Question: And the “ATP Level Mean” value ([1]; Week 8 (infusion 8), 12 hours)?
Answer: 0.925 mM

Question: What about the “ATP Level Median” value ([1]; Week 8 (infusion 8), 12 hours) of the same molecule?
Answer: 1.050 mM

Question: And the “ATP Level Mean” value ([1]; Week 8 (infusion 8), 14 hours)?
Answer: 0.980 mM

Question: What about the “ATP Level Median” value ([1]; Week 8 (infusion 8), 14 hours) of the same molecule?
Answer: 0.950 mM

Question: And the “ATP Level Mean” value ([1]; Week 8 (infusion 8), 16 hours)?
Answer: 0.894 mM

Question: What about the “ATP Level Median” value ([1]; Week 8 (infusion 8), 16 hours) of the same molecule?
Answer: 0.700 mM

Question: What about the “ATP Level Mean” value ([1]; Week 8 (infusion 8), 20 hours) of the same molecule?
Answer: 0.960 mM

Question: And the “ATP Level Median” value ([1]; Week 8 (infusion 8), 20 hours)?
Answer: 0.900 mM

Question: And the “ATP Level Mean” value ([1]; Week 8 (infusion 8), 24 hours)?
Answer: 0.708 mM

Question: What about the “ATP Level Median” value ([1]; Week 8 (infusion 8), 24 hours) of the same molecule?
Answer: 0.750 mM

Question: What about the “ATP Level Mean” value [1, 14] of the same molecule?
Answer: 0.573 mM

Question: What about the “ATP Level Median” value [1, 14] of the same molecule?
Answer: 0.560 mM

Question: And the “ATP Level Mean” value ([1]; Week 8 (infusion 8), […])?
Answer: 1.000 mM

Question: What about the “ATP Level Median” value ([1]; Week 8 (infusion 8), […]) of the same molecule?
Answer: 0.980 mM

Question: And the “Increases in total blood ATP pools” value ([1]; patients 502-505, weeks 1, 3 and 8, time 0 to 8 hours (end of the infusions))?
Answer: 70-90%

Question: And the “Tumor burden Endpoints: PSA Post” value ([2]; Patient 503, PSA Pre 4000)?
Answer: Post 3903

Question: What about the “PSA compared to baseline” value ([2]; Patient 503, at the end of follow up) of the same molecule?
Answer: unchanged

Question: And the “Tumor burden Endpoints: PSA” value ([2]; Patient 507, increased after stopping Rx)?
Answer: PSA unchanged

Question: And the “Cardiac Output” value [3, 15]?
Answer: Increase

Question: What about the “Heart Rate” value [3, 15] of the same molecule?
Answer: Increase

Question: What about the “Pulmonary Arterial Pressure” value [3, 15] of the same molecule?
Answer: Decrease

Question: And the “Pulmonary Vascular Resistance” value [3, 15]?
Answer: Decrease

Question: And the “Systemic Arterial Pressure” value [3, 15]?
Answer: Decrease

Question: What about the “Systemic Vascular Resistance” value [3, 15] of the same molecule?
Answer: Decrease

Question: What about the “Cardiac Output” value [3, 16] of the same molecule?
Answer: Small Increase

Question: And the “Heart Rate” value [3, 16]?
Answer: do not affect; also recorded: No Change

Question: And the “Pulmonary Arterial Pressure” value [3, 16]?
Answer: No Change

Question: And the “Pulmonary Vascular Resistance” value [3, 16]?
Answer: Decrease

Question: What about the “Systemic Arterial Pressure” value [3, 16] of the same molecule?
Answer: do not affect; also recorded: No Change

Question: What about the “Systemic Vascular Resistance” value [3, 16] of the same molecule?
Answer: Small Decrease

Question: And the “arterial oxygen pressure (PaO2)” value ([4]; after the administration of ATP into the duodenum)?
Answer: increase

Question: And the Pulmonary Vascular Resistance [4, 17]?
Answer: reductions

Question: What about the “arterial blood pressure or heart rate” value [4, 17] of the same molecule?
Answer: No effects

Question: What about the blood flow [4, 17] of the same molecule?
Answer: increases

Question: What about the peripheral vascular resistance [4, 17] of the same molecule?
Answer: reductions
